From article PMC8539250, “Synthesis and Anti-HIV Activity of a Novel Series of Isoquinoline-Based CXCR4 Antagonists” (Molecules, 2021)
Where two headings read alike, the source gives them in different places.

Legend:
[1] = Cytotoxicity in mock-infected MT-4 cells; assay type: cell-based; details: human, mock-infected (uninfected) MT-4 cells, concentration reducing viability of mock-infected MT4 cells by 50%; mean ± SD
Description: (§1) First, the ability of the compounds to compete with fluorescently labeled CXCL12 (CXCL12^AF647) for binding at CXCR4 was determined. Second, since binding of CXCL12 to CXCR4 results into a transient increase of cytosolic calcium levels, the inhibition of this CXCL12-induced calcium mobilization by the various compounds was also investigated. […] In parallel, the cytotoxicity of the compounds for uninfected MT-4 cells was assessed. […] The CD4 cell line MT-4 was obtained from the American Type Culture Collection (Rockville, MD, USA) and cultured in RPMI 1640 medium (Gibco BRL, Gaithersburg, MD, USA) with 10% heat-inactivated fetal calf serum (Biowhittaker Europe, Verviers, Belgium) and 2 mmol/L L-glutamine (Gibco BRL). The anti-HIV-1 and anti-HIV-2 activity in MT-4 cells was determined using a tetrazolium-based colorimetric assay. This assay been described in detail before. Threefold dilutions of the drugs in 100 μL medium were added to duplicate wells of 96-well flat bottom plates (Iwaki Glass). […] The cytopathic effect induced by the virus was checked regularly microscopically. […] The absorbance was then recorded at 490 nm with a 96-well plate reader and compared with four cell control replicates (cells without virus and drugs) and four virus control wells (cells with virus but without drug). Each assay was performed at least three times. […] Absorbance was recorded using the VersaMax ELISA™ microplate reader (Molecular Devices) and analyzed with the Softmax Pro® software (Molecular Devices, Version 4.0, www.moleculardevices.com, accessed on 10 January 2015). Using mock-infected cells, the cytotoxic concentration 50 (CC50) of each compound was investigated.

CXCR4 [2] = molecular target: T1, CXCR4 (Homo sapiens, UniProt P61073); assay: CXCL12-induced calcium mobilization assay in U87.CD4.CXCR4 cells (FLIPR); assay type: cell-based; details: concentration needed to inhibit CXCL12-induced calcium signaling by 50%, 6.25 nM CXCL12, mean ± SD
T1 sequence (P61073 whole entry): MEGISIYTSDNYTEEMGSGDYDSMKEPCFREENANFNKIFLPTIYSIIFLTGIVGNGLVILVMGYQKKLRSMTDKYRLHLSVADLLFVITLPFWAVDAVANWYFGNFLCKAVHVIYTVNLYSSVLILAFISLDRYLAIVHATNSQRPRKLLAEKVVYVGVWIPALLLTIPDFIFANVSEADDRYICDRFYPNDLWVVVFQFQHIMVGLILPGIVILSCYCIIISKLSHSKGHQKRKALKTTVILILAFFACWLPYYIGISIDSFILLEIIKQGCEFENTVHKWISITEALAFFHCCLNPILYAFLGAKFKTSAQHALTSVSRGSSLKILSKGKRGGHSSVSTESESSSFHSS
Description: (§2) First, the ability of the compounds to compete with fluorescently labeled CXCL12 (CXCL12^AF647) for binding at CXCR4 was determined. […] Finally, given the role of CXCR4 as a major coreceptor for HIV entry, the antiviral activity of the compounds against the X4-tropic wild type HIV-1 NL4–3 strain and the HIV-2 ROD strain was determined in MT-4 cells. In parallel, the cytotoxicity of the compounds for uninfected MT-4 cells was assessed.
The calcium mobilization assay has been described in detail previously. U87.CD4.CXCR4 cells (2 × 10^4 cells per well in DMEM/10% FBS/0.01 M HEPES) were seeded in gelatin-coated (Sigma-Aldrich; 0.1% gelatin in DPBS) black-walled 96-well plates and incubated overnight at 37 °C and 5% CO2. The next day, cells were loaded with the fluorescent calcium indicator Fluo-2 acetoxymethyl (AM) ester (4 μM; Abcam) and incubated at room temperature in the dark for 45 min. Then, cells were incubated with various concentrations of the compounds for 10 min prior to the addition of 6.25 nM CXCL12 (in assay buffer). Fluctuations in intracellular calcium levels were measured in real time by the FLIPR Tetra® (Molecular Devices, Sunnyvale, CA, USA) in all 96 wells simultaneously. The response over baseline (after CXCL12 addition) was calculated with the ScreenWorks 4.0® software (Molecular Devices, Version 4.0, www.moleculardevices.com, accessed on 10 January 2015) by dividing the obtained relative light units (RLUs) through the base line measured just before CXCL12 addition. From this the IC50 value for each compound was determined taking into account the negative (i.e., untreated cells without CXCL12 stimulation) and positive (i.e., untreated cells with CXCL12 addition) control samples.

HIV-2 ROD = assay: Anti-HIV-2 assay in MT-4 cells (tetrazolium-based colorimetric, cytopathic effect); assay type: cell-based; details: Human immunodeficiency virus 2, MT4
Description: (§3) First, the ability of the compounds to compete with fluorescently labeled CXCL12 (CXCL12^AF647) for binding at CXCR4 was determined. Second, since binding of CXCL12 to CXCR4 results into a transient increase of cytosolic calcium levels, the inhibition of this CXCL12-induced calcium mobilization by the various compounds was also investigated. […] In parallel, the cytotoxicity of the compounds for uninfected MT-4 cells was assessed. […] The CD4 cell line MT-4 was obtained from the American Type Culture Collection (Rockville, MD, USA) and cultured in RPMI 1640 medium (Gibco BRL, Gaithersburg, MD, USA) with 10% heat-inactivated fetal calf serum (Biowhittaker Europe, Verviers, Belgium) and 2 mmol/L L-glutamine (Gibco BRL). […] The anti-HIV-1 and anti-HIV-2 activity in MT-4 cells was determined using a tetrazolium-based colorimetric assay. […] Threefold dilutions of the drugs in 100 μL medium were added to duplicate wells of 96-well flat bottom plates (Iwaki Glass). […] The cytopathic effect induced by the virus was checked regularly microscopically. […] Each assay was performed at least three times. […] Absorbance was recorded using the VersaMax ELISA™ microplate reader (Molecular Devices) and analyzed with the Softmax Pro® software (Molecular Devices, Version 4.0, www.moleculardevices.com, accessed on 10 January 2015). Using mock-infected cells, the cytotoxic concentration 50 (CC50) of each compound was investigated.

HIV-1 NL4.3 = assay: Anti-HIV-1 assay in MT-4 cells (tetrazolium-based colorimetric, cytopathic effect); assay type: cell-based; details: Human immunodeficiency virus 1, MT4
Description: as §3

CXCR4 [3] = molecular target: T1, CXCR4; assay: CXCL12AF647 competition binding assay with Jurkat cells (flow cytometry); parameters: endogenous in cells; host or cells: Jurkat cells
Description: as §2
The CXCL12^AF647 binding assay with Jurkat cells has been described previously. Briefly, Jurkat cells were resuspended in assay buffer [Hank’s Balanced Salt Solution (HBSS, Thermo Fisher Scientific), 20 mM HEPES buffer, 0.2% bovine serum albumin (Sigma-Aldrich), pH 7.4] at 3 × 10^5 cells per sample and then treated with various concentrations of the compound at room temperature for 15 min. Afterwards, the cells were incubated with 2.9 nM CXCL12^AF647 (in assay buffer) at room temperature for 30 min in the dark. Cells were fixed in 1% paraformaldehyde in DPBS and specific CXCL12^AF647 binding [i.e., mean fluorescence intensity (MFI)] was quantified by flow cytometry (FACSCanto^TM II; Becton Dickinson). Data were analyzed with FlowJo® Software. The 50% inhibitory concentration (IC50) was calculated for each compound relative to the negative (i.e., autofluorescence of untreated and unlabeled cells) and positive (i.e., untreated cells exposed to CXCL12^AF647 only) control.

MT-4 cells = assay: Cytotoxicity in mock-infected MT-4 cells; assay type: cell-based
Description: as §1

[4] = 50% protection of MT-4 cells against HIV-induced cytopathicity, mean ± SD, read-out: HIV-2 ROD EC50
[5] = 50% protection of MT-4 cells against HIV-induced cytopathicity, mean ± SD, read-out: HIV-1 NL4.3 EC50
[6] = concentration needed to inhibit CXCL12 receptor binding by 50%, Jurkat cells, 2.9 nM CXCL12AF647, mean ± SD
[7] = MT-4 cells, read-out: EC50 against HIV-2
[8] = MT-4 cells, read-out: EC50 against HIV-1

| SMILES | IC50 (CXCR4 [2]) [nM] | EC50 (HIV-2 ROD; [4]) [nM] | EC50 (HIV-1 NL4.3; [5]) [nM] | IC50 (CXCR4 [3]; [6]) [nM] | EC50 (HIV-2 ROD; [7]) [nM] | EC50 (HIV-1 NL4.3; [8]) [nM] | IC50 (CXCR4 [3]; competition with CXCL12 for binding to CXCR4) [nM] | CC50 at 4 d [1] [nM] | cytotoxicity for the MT4 cell line (in words) (MT-4 cells) | CC50 (MT-4 cells; concentration reducing viability of mock-infected MT4 cells by 50%, mean ± SD) [nM] |
| --- | --- | --- | --- | --- | --- | --- | --- | --- | --- | --- |
| COc1cc2ccnc(CN(CCCCN)C3CCCc4cccnc43)c2cc1OC (stereo not drawn) [Compound 19a, N1-((6,7-Dimethoxyisoquinolin-1-yl)methyl)-N1-(5,6,7,8-tetrahydroquinolin-8-yl)butane-1,4-diamine] | 25 ± 8.1 | 42 ± 13 | 74 ± 27 | 7.2 ± 3.2 | – | – | – | > 100000 | – | – |
| COc1ccc2c(CN(CCCCN)C3CCCc4cccnc43)nccc2c1 (stereo not drawn) [Compound 19b, N1-((6-Methoxyisoquinolin-1-yl)methyl)-N1-(5,6,7,8-tetrahydroquinolin-8-yl)butane-1,4-diamine] | 28 ± 4.9 | 77 ± 19 | 61 ± 31 | 2.5 ± 1.2 | – | – | – | 11100 ± 540 | – | – |
| NCCCCN(Cc1nccc2cc(F)ccc12)C1CCCc2cccnc21 (stereo not drawn) [Compound 19c, N1-((6-Fluoroisoquinolin-1-yl)methyl)-N1-(5,6,7,8-tetrahydroquinolin-8-yl)butane-1,4-diamine] | 33 ± 21 | 11 ± 5.6 | 16 ± 12 | 8.9 ± 5.6 | – | – | – | 18100 ± 6820 | – | – |
| NCCCCN(Cc1nccc2cc(Br)ccc12)C1CCCc2cccnc21 (stereo not drawn) [Compound 19d, N1-((6-Bromoisoquinolin-1-yl)methyl)-N1-(5,6,7,8-tetrahydroquinolin-8-yl)butane-1,4-diamine] | 440 ± 210 | 550 ± 360 | 550 ± 360 | 26 ± 1.7 | – | – | – | 43600 ± 1770 | – | – |
| NCCCCN(Cc1nccc2ccccc12)C1CCCc2cccnc21 (stereo not drawn) [Compound 19e, N1-(Isoquinolin-1-ylmethyl)-N1-(5,6,7,8-tetrahydroquinolin-8-yl)butane-1,4-diamine] | 130 ± 41 | 26 ± 30 | 84 ± 15 | 9.2 ± 4.2 | < 100 | < 100 | – | 26700 ± 18600 | lack cytotoxicity | – |
| NCCCCN(Cc1ccccn1)C1CCCc2cccnc21 (stereo not drawn) [Compound 20, N1-(Pyridin-2-ylmethyl)-N1-(5,6,7,8-tetrahydroquinolin-8-yl)butane-1,4-diamine] | – | 58 ± 22 | 58 ± 71 | – | < 100 | < 100 | – | 55400 ± 720 | lack cytotoxicity | – |
| Cc1cccnc1CN(CCCCN)Cc1ccccn1 [Compound 25, N1-((3-Methylpyridin-2-yl)methyl)-N1-(pyridin-2-ylmethyl)butane-1,4-diamine] | 180 ± 23 | 170 ± 160 | 230 ± 210 | 6.2 ± 0.57 | – | – | 0.6 | 79800 ± 13100 | – | – |
| c1cc(CN2CCCNCCNCCCNCC2)ccc1CN1CCCNCCNCCCNCC1 [Plerixafor, reference compound] | – | 8.1 ± 4.2 | 4.9 ± 3.2 | – | – | – | – | 6290 ± 720 | – | – |

The next lines start with results.

| IC50 (CXCR4 [2]) [nM] | EC50 (HIV-2 ROD; [4]) [nM] | EC50 (HIV-1 NL4.3; [5]) [nM] | IC50 (CXCR4 [3]; [6]) [nM] | EC50 (HIV-2 ROD; [7]) [nM] | EC50 (HIV-1 NL4.3; [8]) [nM] | IC50 (CXCR4 [3]; competition with CXCL12 for binding to CXCR4) [nM] | SMILES | CC50 at 4 d [1] [nM] | cytotoxicity for the MT4 cell line (in words) (MT-4 cells) | CC50 (MT-4 cells; concentration reducing viability of mock-infected MT4 cells by 50%, mean ± SD) [nM] |
| --- | --- | --- | --- | --- | --- | --- | --- | --- | --- | --- |
| 13 ± 5.3 | 24 ± 1.8 | 23 ± 8 | 3.2 ± 0.99 | < 100 | < 100 | – | COc1cc2ccnc(CN(CCCCN)Cc3ncccc3C)c2cc1OC [Compound 24a, N1-((6,7-dimethoxyisoquinolin-1-yl)methyl)-N1-((3-methylpyridin-2-yl)methyl)butane-1,4-diamine] | > 100000 | lack cytotoxicity | – |
| 3850 ± 190 | > 9270 | > 9270 | 890 ± 460 | – | – | – | COc1ccc2c(CN(CCCCN)Cc3ncccc3C)nccc2c1 [Compound 24b, N1-((6-Methoxyisoquinolin-1-yl)methyl)-N1-((3-methylpyridin-2-yl)methyl)butane-1,4-diamine] | 9270 ± 460 | – | – |
| 6.1 ± 1 | 3.8 ± 0.29 | 6.2 ± 5.9 | 0.64 ± 0.17 | < 100 | < 100 | – | Cc1cccnc1CN(CCCCN)Cc1nccc2cc(F)ccc12 [Compound 24c, N1-((6-Fluoroisoquinolin-1-yl)methyl)-N1-((3-methylpyridin-2-yl)methyl)butane-1,4-diamine] | 31000 | lack cytotoxicity | 30800 ± 880 |
| 690 ± 230 | 2540 ± 910 | 2540 ± 910 | 39 ± 24 | – | – | – | Cc1cccnc1CN(CCCCN)Cc1nccc2cc(Br)ccc12 [Compound 24d, N1-((6-Bromoisoquinolin-1-yl)methyl)-N1-((3-methylpyridin-2-yl)methyl)butane-1,4-diamine] | 29500 ± 9760 | – | – |
| 930 ± 720 | 2290 ± 350 | 770 ± 290 | 26 ± 14 | – | – | – | Cc1cccnc1CN(CCCCN)Cc1nccc2ccccc12 [Compound 24e, N1-(Isoquinolin-1-ylmethyl)-N1-((3-methylpyridin-2-yl)methyl)butane-1,4-diamine] | 40900 ± 6530 | – | – |
